Assay results reported in the NIST ThermoML archive (doi:10.1016/j.tca.2005.01.064).

Assays:
[1] = excess molar enthalpy (molar enthalpy of mixing); xn = mol fraction of the nth substance listed; details: 308.15 K, 101.33 kPa, Liquid, Flow calorimetry
[2] = 308.15 K; 101.33 kPa; Liquid; Vibrating tube method

OCCO [1,2-ethanediol] + CCO
[1]
Details	excess molar enthalpy [kcal/mol]
x1 = 0.0719	0.0526
x1 = 0.1341	0.0833
x1 = 0.1886	0.103
x1 = 0.2365	0.115
x1 = 0.3173	0.126
x1 = 0.3826	0.131
x1 = 0.4817	0.131
x1 = 0.5533	0.125
x1 = 0.6502	0.115
x1 = 0.7361	0.099
x1 = 0.788	0.0846
x1 = 0.8479	0.0684
x1 = 0.8815	0.0565
x1 = 0.9177	0.0413
x1 = 0.9371	0.0333
x1 = 0.9571	0.0229
x1 = 0.9781	0.012

OCCOCCO [diethylene glycol]
Details	mass density [kg/m3]
[2]	1105.65

OCCOCCO [diethylene glycol] + CCO
[1]
Details	excess molar enthalpy [kcal/mol]
x1 = 0.0434	0.0185
x1 = 0.0833	0.0319
x1 = 0.1199	0.0422
x1 = 0.1537	0.0483
x1 = 0.2142	0.0582
x1 = 0.2663	0.063
x1 = 0.3528	0.0668
x1 = 0.4208	0.0668
x1 = 0.5216	0.0644
x1 = 0.6206	0.0565
x1 = 0.6856	0.0507
x1 = 0.7658	0.0417
x1 = 0.8135	0.0353
x1 = 0.8674	0.0262
x1 = 0.8973	0.0217
x1 = 0.929	0.0152
x1 = 0.9632	0.00786

CCO [ethanol]
Details	mass density [kg/m3]
[2]	776.41

OCCOCCOCCO [triethylene glycol]
Details	mass density [kg/m3]
[2]	1112.09

OCCOCCOCCO [triethylene glycol] + CCO
[1]
Details	excess molar enthalpy [kcal/mol]
x1 = 0.0313	0.0319
x1 = 0.0606	0.0563
x1 = 0.0883	0.077
x1 = 0.1143	0.0905
x1 = 0.1623	0.111
x1 = 0.2047	0.125
x1 = 0.2792	0.141
x1 = 0.3405	0.145
x1 = 0.4365	0.15
x1 = 0.5376	0.146
x1 = 0.6078	0.145
x1 = 0.6992	0.132
x1 = 0.756	0.117
x1 = 0.823	0.0973
x1 = 0.8613	0.0786
x1 = 0.9029	0.0595
x1 = 0.949	0.0324
